Key:
Assay type in all cases: in vivo
[1] = test system: PKCδ; assay: Striatal PKCδ expression after MA (western blot); conditions: MA 8 mg/kg i.p. x4, GPx-1 (+/+) and (−/−) mice; for effect on MA-induced striatal PKCδ expression: p.o., AME 25 or 50, EBS 10 or 20, rottlerin 10 or 20 mg/kg
Protocol: (§1) The mice received four times of MA (8 mg/kg, ip) or saline as a 2 hr-time interval. Chemicals (AME, EBS, and PKC inhibitors) were administrated for 5 consecutive days (twice daily), and were given 2 times at 4 hr and 30 min before the first MA injection as shown in the experimental schedule. Animals were sacrificed at 4 hrs and 3 days after the final MA administration.
Tissues were homogenized in lysis buffer, containing 200 mM Tris HCl (pH 6.8), 1% SDS, 5 mM EGTA (ethylene glycol tetraacetic acid), 5 mM EDTA (ethylenediaminetetraacetic acid), 10% glycerol, 1× phosphatase inhibitor cocktail I, 1× protease inhibitor cocktail. Lysate was centrifuged at 12,000×g for 30 min and supernatant fraction was used for Western blot analysis. […] And then, membranes were incubated with HRP-conjugated secondary anti-rabbit IgG (1:1000, GE healthcare, Piscataway, N.J., USA), anti-mouse IgG (1:1000, Sigma) or anti-goat IgG (1:1000, Sigma) for 2 h. Subsequent visualization was performed using enhanced chemiluminescence system (ECL Plus®, GE healthcare).

[2] = test system: GPx-1; assay: Striatal glutathione peroxidase (GPx) activity after MA; conditions: p.o.; AME 50, EBS 20, rottlerin 20 mg/kg; MA 8 mg/kg i.p. x4; GPx-1 (+/+) mice
Protocol: as §1
GPx were immediately measured from dissected striatal tissues. The tissues were sonicated in ice-cold 50 mM potassium phosphate buffer (pH 7.4, containing 2 mM EDTA), and were centrifuged at 11,000×g for 15 min at 4° C. The resulting supernatants were collected and the protein concentrations were quantified with the Quant-iT assays, using the Qubit™ fluorometer (Invitrogen, Carlsbad, Calif., USA). Cellular GPx activity was measured by the method of Paglia and Valentine (1967) with minor modification (Shin et al., 2008). The incubation mixture contained 1 mM glutathione, 0.2 mM NADPH, and 1.4 IU glutathione reductase in 0.05 M potassium phosphate buffer, pH 7.0. The reaction was initiated by the simultaneous addition of supernatant (0.3-0.8 mg protein) and 0.25 mM H2O2. The change in absorbance at 340 nm was followed by for 4.5 min and 1 UI of GPx activity was defined as the amount required to oxidize 1 μM NADPH/min, based on the molar absorptivity of […] for NADPH.

[3] = test system: GPx-1 (+/+)- and GPx-1 (−/−)-mice; assay: MA-induced hyperthermia (rectal temperature); conditions: MA 8 mg/kg i.p. x4
Protocol: as §1
Rectal temperature was measured in the MA- or saline-treated mice. Measurement was performed at constant daytime intervals starting at 9:00 A.M. to avoid the influence on circadian variations. Rectal temperature was measured by inserting a thermometer probe lubricated with oil at least 3 cm into the rectum of the mice. To prevent sudden movements occurring especially in MA-treated mice, animals were gently handled with a wool glove while their tail was moved to allow the probe insertion. This was done to prevent the effects of restrain stress on rectal temperature. When the attempt to insert probe was not successful (i.e., sudden movements of the animal or the need to restrain the mouse), the animal was excluded from the groups.

[4] = test system: tyrosine hydroxylase (TH); assay: Striatal tyrosine hydroxylase (TH) activity after MA; conditions: p.o.; AME 50, EBS 20, rottlerin 20 mg/kg; MA 8 mg/kg i.p. x4; GPx-1 (+/+) and (−/−) mice
Protocol: as §1
TH activity was measured according to the method of Lucock et al. with some modification (Duan et al., 2005). Briefly, striatum was lysed in 400 μl TH working solution (1-tyrosine: 300 μmol/L; FeSO4: 1 mmol/L; NaAC: 200 mmol/L; NSD-1050:500 won; DTT: 1 mmol/L; MES: 40 mmol/L, pH 5.2-5.6) with freezing-thawing repeatedly for three times. The lysate was reacted for 3 h at 25° C. The reaction was stopped by 0.4 mol/L perchloric acid, and then reactant was centrifuged at 14,000×g for 10 min. Supernatants were collected to assay the amounts of 1-dopa by HPLC-ECD. The activity of TH was expressed as that amount of 1-dopa per minute and per gram of wet tissue.

[5] = test system: GPx-1 (+/+)- and GPx-1 (−/−)-mice; assay: Locomotor activity after MA; conditions: MA 8 mg/kg i.p. x4, GPx-1 (+/+) and (−/−) mice
Protocol: as §1
Locomotor activity was measured for 30 min 3 days after the last MA administration using an automated video-tracking system (Noldus Information Technology, Wagenin, The Netherlands). Four test boxes (40×40×30 cm high) were operated simultaneously by an IBM computer. Mice were studied individually during locomotion in each test box, where they were adapted for 5 min before starting the experiment. […] The distance traveled in cm by the animals in horizontal locomotor activity was analyzed. Data were collected and analyzed between 09:00 and 17:00 h (Kim et al., 2001).

[6] = test system: dopamine (DA), DOPAC, HVA; assay: Striatal DA, DOPAC and HVA after MA (HPLC); conditions: p.o.; AME 50, EBS 20, rottlerin 20 mg/kg; MA 8 mg/kg i.p. x4; GPx-1 (+/+) and (−/−) mice
Protocol: as §1
At 3 day after last MA injection, mice were killed by cervical dislocation and the brains were removed. Striatum was dissected and immediately frozen on dry ice, and stored at −70° C. until extraction. Striatum obtained from each animal was weighed, ultrasonicated in 10% perchloric acid containing 10 ng/mg of the internal standard dihydroxybenzylamine, and centrifuged at 20,000×g for 10 min. The levels of DA and its metabolites 3,4-dihydroxyphenylacetic acid (DOPAC) and homovanillic acid (HVA) in brain tissue extracts were determined by HPLC coupled with electrochemical detection as described (Kim et al., 1999). The 20 μl aliquot of the supernatant was injected into the HPLC equipped with a 3 μm C18 column. The mobile phase was comprised of 26 ml of acetonitrile, 21 ml of tetrahydrofuran and 960 ml of 0.15M monochloroacetic acid (pH 3.0) containing 50 mg/l of EDTA and 200 mg/l of sodium octyl sulfate. The amount of DA, DOPAC and HVA were determined by comparison of peak area of tissue sample with standard, and were expressed in nanograms per gram of wet tissue.

[7] = p.o., AME 25 or 50, EBS 10 or 20, rottlerin 10 or 20 mg/kg (p<0.01 at high dose), GPx-1 (+/+) and (−/−) mice
[8] = p.o., AME 25 or 50, EBS 10 or 20, rottlerin 10 or 20 mg/kg

Row | SMILES | effect on MA-induced striatal PKCδ expression [1] | effect on MA-induced decrease in striatal GPx-1 activity [2] | effect on MA-induced hyperthermia [3, 7] | effect on MA-induced decrease in TH activity [4] | effect on MA-induced impairment in locomotor activity [5, 8] | effect on MA-induced change in DA turnover rate [6] | effect on MA-induced change in striatal DA level [6] | effect on MA-induced change in striatal DOPAC level [6] | effect on MA-induced change in striatal HVA level [6] | effect on MA-induced increase in striatal PKCδ expression ([1]; intra-striatal) | effect on MA-induced hyperthermia ([3]; PKC inhibitors intra-striatal (doses of Table 1), GPx-1 (+/+) and GPx-1 (−/−) mice) | effect on MA-induced impairment in locomotor activity ([5]; PKC inhibitors intra-striatal (chelerythrine 0.2 ug/head, rottlerin 3.0 ug/head significant))
1 | CC(=O)Oc1ccccc1C(=O)Oc1c(C)occc1=O [AME, 3-(2-methyl-4-pyronyl)-2-acetyloxybenzoate] | significantly reduced MA-induced the PKCδ- and cleaved PKCδ-expressions in a dose-related manner | inhibited MA-induced decrease | attenuated hyperthermia induced by MA in a dose-related manner | decrease in TH activity was attenuated | inhibited these effects in a dose-dependent manner | significantly attenuated MA-induced dopaminergic impairment | significantly attenuated MA-induced dopaminergic impairment | significantly attenuated MA-induced dopaminergic impairment | significantly attenuated MA-induced dopaminergic impairment |  |  | 
2 | O=c1c2ccccc2[se]n1-c1ccccc1 [EBS, 2-phenyl-1,2-benzisoselenazol-3(2H)-one] | significantly reduced MA-induced the PKCδ- and cleaved PKCδ-expressions in a dose-related manner | inhibited MA-induced decrease | attenuated hyperthermia induced by MA in a dose-related manner | decrease in TH activity was attenuated | inhibited these effects in a dose-dependent manner | significantly attenuated MA-induced dopaminergic impairment | significantly attenuated MA-induced dopaminergic impairment | significantly attenuated MA-induced dopaminergic impairment | significantly attenuated MA-induced dopaminergic impairment |  |  | 
3 | CC(=O)c1c(O)c(C)c(O)c(Cc2c(O)c3c(c(C(=O)/C=C/c4ccccc4)c2O)OC(C)(C)C=C3)c1O [rottlerin] | significantly reduced MA-induced the PKCδ- and cleaved PKCδ-expressions in a dose-related manner | inhibited MA-induced decrease | attenuated hyperthermia induced by MA in a dose-related manner | decrease in TH activity was attenuated | inhibited these effects in a dose-dependent manner | significantly attenuated MA-induced dopaminergic impairment | significantly attenuated MA-induced dopaminergic impairment | significantly attenuated MA-induced dopaminergic impairment | significantly attenuated MA-induced dopaminergic impairment | attenuated the MA-induced increases in PKCδ expressions in a dose-dependent manner | significantly blocked MA-induced hyperthermia in a dose-dependent manner | attenuated the MA-behavioral impairments in a dose-dependent manner

Source: US20120328696A1, “ANTI-PARKINSONIAN COMPOUND ACETYLSALICYLIC ACID MALTOL ESTER” (Hutecs Korea Pharmaceutical Co., Ltd., priority 2008, published 2012)
